Experimental data from patent US20260027096A1, “PHD INHIBITORS” (Oxford University Innovation Limited, priority 2023, published 2026).

target: PHD2 (Homo sapiens (Human), UniProt Q9GZT9); test: PHD2 RF-MS (RapidFire LC-MS) hydroxylation assay; type: biochemical
Method: In brief, cDNA encoding for the catalytic domain of tPHD2 (181-426 residues) was cloned into the pET28a (+)/pET24a (+) vectors (Novagen), to enable production of tPHD2 (residues 181-426) protein with/without an N-terminal His6-tag. The tPHD2 (residues 181-426) encoding construct was transformed into the Escherichia coli BL21 DE3 cell line; protein production was induced with 0.5 mM […] (3-5 hr at 28° C.). […] The protein was exchanged into 50 mM Tris-HCl buffer (pH 7.5) and concentrated to % 40 mg/ml.
Tris(hydroxymethyl)aminomethane was from Fisher. Ferrous ammonium sulfate (FAS), 2-oxoglutarate (2OG) and L-ascorbic acid were from Sigma Aldrich; solutions of these were prepared freshly each day. All inhibition assays were carried out in 384-well polypropylene plates (Greiner Bio-One). PHD2 assays were performed in assay buffer (50 mM Tris. Cl pH 7.5, 50 mM NaCl). […] The final assay concentration of DMSO was kept constant at 0.5%. PHD2 protein was prepared at a concentration of 300 nM in assay buffer and 25 μl dispensed across each 384-well assay plate. The PHD2 solution was allowed to equilibrate with the inhibitors for 15 minutes at room temperature; the enzyme reaction then initiated by dispense of 25 μl of substrate (20 μM FAS, 200 µM L-ascorbic acid, 10 μM CODD peptide and 20 μM 2OG in the assay buffer. Enzyme reactions were allowed to proceed for 20 minutes at room temperature and the reaction terminated by addition of 10% formic acid (5 μl). Assay plates were then transferred to a RapidFire RF360 sampling robot (Agilent) connected to an Agilent 6530 accurate mass quadrupole-time-of-flight (Q-TOF) mass spectrometer. Assay samples were aspirated under vacuum and loaded onto a C4 solid phase extraction (SPE) cartridge. After loading the C4 SPE was washed with 0.1% formic acid in water to remove non-volatile buffer salts and then peptide was eluted from the SPE with 85% acetonitrile, 15% water containing 0.1% formic acid onto the mass spectrometer. Peptide charge states were monitored in positive mode. Ion chromatogram data were extracted for the +2 charge state and peak area data integrated using RapidFire Integrator software (Agilent). % conversion of the CODD peptide substrate to the +16 hydroxylated peptide was calculated using the equation: % conversion=100×hydroxylated/(hydroxylated+non-hydroxylated peptide). IC50 values were determined from non-linear regression plots using GraphPad prism.
Example 158—Structure activity relationship (SAR) studies for PHD inhibition SAR studies for PHD inhibition were carried out on the compounds of the invention. Compounds were screened against PHD2 using the RF-MS hydroxylation assay.

Chain of PHD2 (Q9GZT9 181-426): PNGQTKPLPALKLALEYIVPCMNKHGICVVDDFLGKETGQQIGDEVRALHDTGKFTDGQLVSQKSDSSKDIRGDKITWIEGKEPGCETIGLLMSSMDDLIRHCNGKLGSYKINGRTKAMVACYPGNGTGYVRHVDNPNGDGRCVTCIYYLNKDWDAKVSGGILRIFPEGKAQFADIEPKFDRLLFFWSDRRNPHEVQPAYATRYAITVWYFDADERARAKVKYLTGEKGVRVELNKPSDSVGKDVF

| SMILES | IC50 [nM] |
| --- | --- |
| N#Cc1cnn(-c2ncc(C(=O)NCc3ccc(-c4ccccc4)cc3)cc2O)c1 [Compound 125, N-([1,1′-biphenyl]-4-ylmethyl)-6-(4-cyano-1H-pyrazol-1-yl)-5-hydroxynicotinamide] | 1 to 1000 |
| N#Cc1cnc(-n2cc(C(=O)NCc3ccc(-c4ccccc4)cc3)cn2)nc1O [Compound 158, N-([1,1′-biphenyl]-4-ylmethyl)-1-(5-cyano-4-hydroxypyrimidin-2-yl)-1H-pyrazole-4-carboxamide] | 1 to 1000 |
| N#Cc1cnn(-c2cc(O)c(C(=O)NCc3ccc(-c4ccccc4)cc3)cn2)c1 [Compound 85, N-([1,1′-Biphenyl]-4-ylmethyl)-6-(4-cyano-1H-pyrazol-1-yl)-4-hydroxynicotinamide] | 1 to 1000 |
| O=C(NCc1cccc(-c2ccccc2)c1)c1cnc(-n2cccn2)cc1O [Compound 65, N-([1,1′-Biphenyl]-3-ylmethyl)-4-hydroxy-6-(1H-pyrazol-1-yl) nicotinamide] | 1 to 1000 |
| N#Cc1ccc(-n2cc(C(=O)NCc3ccc(-c4ccccc4)cc3)cn2)nc1 [Compound 97, N-([1,1′-Biphenyl]-4-ylmethyl)-1-(5-cyanopyridin-2-yl)-1H-pyrazole-4-carboxamide] | > 10000 |
| O=C(O)c1cnn(-c2cc(O)c(C(=O)NCc3ccc(-c4ccccc4)cc3)cn2)c1 [Compound 84, 1-(5-(([1,1′-Biphenyl]-4-ylmethyl)carbamoyl)-4-hydroxypyridin-2-yl)-1H-pyrazole-4-carboxylic acid] | 1 to 1000 |
| O=C(NCc1ccc(-c2ccccc2)cc1)c1cnc(-n2cccn2)nc1 [Compound 20, N-([1,1′-Biphenyl]-4-ylmethyl)-2-(1H-pyrazol-1-yl)pyrimidine-5-carboxamide] | > 10000 |
| O=C(NCc1cccc(-c2ccccc2)c1)c1cnc(-n2cccn2)c(O)c1 [Compound 76, N-([1,1′-Biphenyl]-3-ylmethyl)-5-hydroxy-6-(1H-pyrazol-1-yl) nicotinamide] | 1000 to 10000 |
| O=C(O)c1cnn(-c2ncc(C(=O)NCC3CCC(C(F)(F)F)CC3)cc2O)c1 (stereo not shown) [Compound 129, 1-(3-hydroxy-5-(((4-(trifluoromethyl)cyclohexyl)methyl)carbamoyl)pyridin-2-yl)-1H-pyrazole-4-carboxylic acid] | 1 to 1000 |
| O=C(NCc1cccc(C(F)(F)F)c1)c1cnc(-n2cccn2)cc1O [Compound 43, 4-Hydroxy-6-(1H-pyrazol-1-yl)-N-(3-(trifluoromethyl)benzyl) nicotinamide] | 1000 to 10000 |
| O=C(Nc1cccc(-c2ccccc2)c1)c1cnc(-n2cccn2)cc1O [Compound 66, N-([1,1′-Biphenyl]-3-yl)-4-hydroxy-6-(1H-pyrazol-1-yl) nicotinamide] | 1 to 1000 |
| COc1cc(C(=O)NCc2ccc(-c3ccccc3)cc2)cnc1-n1cc(C#N)cn1 [Compound 124, N-([1,1′-biphenyl]-4-ylmethyl)-6-(4-cyano-1H-pyrazol-1-yl)-5-methoxynicotinamide] | 1 to 1000 |
| O=C(Nc1ccc(-c2ccccc2)cc1)c1cnn(-c2cc(O)ccn2)c1 [Compound 108, N-([1,1′-Biphenyl]-4-yl)-1-(4-hydroxypyridin-2-yl)-1H-pyrazole-4-carboxamide] | > 10000 |
| O=C(Nc1ccc(-c2ccccc2)cc1)c1cnc(-n2cccn2)cc1O [Compound 42, N-([1,1′-Biphenyl]-4-yl)-4-hydroxy-6-(1H-pyrazol-1-yl) nicotinamide] | 1 to 1000 |
| O=C(O)c1cnn(-c2ccc(C(=O)NCc3ccc(-c4ccccc4)cc3)cn2)c1 [Compound 31, 1-(5-(([1,1′-Biphenyl]-4-ylmethyl)carbamoyl)pyridine-2-yl)-1H-pyrazole-4-carboxylic acid] | 1 to 1000 |
| O=C(NCc1ccc(-c2ccccc2)cc1)c1cnn(-c2cc(O)ccn2)c1 [Compound 99, N-([1,1′-Biphenyl]-4-ylmethyl)-1-(4-hydroxypyridin-2-yl)-1H-pyrazole-4-carboxamide] | 1000 to 10000 |
| O=C(NCc1ccc(-c2ccccc2)cc1)c1cnc(-n2cccn2)cc1O [Compound 41, N-([1,1′-Biphenyl]-4-ylmethyl)-4-hydroxy-6-(1H-pyrazol-1-yl) nicotinamide] | 1 to 1000 |

| SMILES | IC50 [nM] |
| --- | --- |
| O=C(O)c1cnn(-c2ncc(C(=O)NCc3ccc(-c4ccccc4)cc3)cc2O)c1 [Compound 86, 1-(5-(([1,1′-Biphenyl]-4-ylmethyl)carbamoyl)-3-hydroxypyridin-2-yl)-1H-pyrazole-4-carboxylic acid] | 1 to 1000 |
| O=C(NCc1ccc(-c2ccccc2)nc1)c1cnc(-n2cccn2)cc1O [Compound 69, 4-Hydroxy-N-((6-phenylpyridin-3-yl)methyl)-6-(1H-pyrazol-1-yl) nicotinamide] | 1 to 1000 |
| O=C(NCc1ccc(-c2ccccc2)cc1)c1cnn(-c2cc(O)c(C(=O)O)cn2)c1 [Compound 96, 6-(4-(([1,1′-Biphenyl]-4-ylmethyl)carbamoyl)-1H-pyrazol-1-yl)-4-hydroxynicotinic acid] | 1000 to 10000 |
| N#Cc1cnc(-n2cc(C(=O)NCc3ccc(-c4ccc(C(=O)O)cc4)nc3)cn2)nc1O [Compound 162, 4-(5-((1-(5-cyano-4-hydroxypyrimidin-2-yl)-1H-pyrazole-4-carboxamido)methyl)pyridin-2-yl)benzoic acid] | 1000 to 10000 |
| O=C(O)c1cnn(-c2ccc(C(=O)NCc3ccccc3)cn2)c1 [Compound 32, 1-(5-(Benzylcarbamoyl)pyridin-2-yl)-1H-pyrazole-4-carboxylic acid] | 1000 to 10000 |
| O=C(O)c1ccc(-n2cc(C(=O)NCc3ccc(-c4ccccc4)cc3)cn2)nc1 [Compound 101, 6-(4-(([1,1′-Biphenyl]-4-ylmethyl)carbamoyl)-1H-pyrazol-1-yl) nicotinic acid] | 1000 to 10000 |
| O=C(NCc1cccc(-c2ccccc2)c1)c1cnn(-c2cc(O)ccn2)c1 [Compound 109, N-([1,1′-Biphenyl]-3-ylmethyl)-1-(4-hydroxypyridin-2-yl)-1H-pyrazole-4-carboxamide] | 1000 to 10000 |
| O=C(O)c1cnn(-c2cc(O)c(C(=O)NCc3ccc(C(F)(F)F)cc3)cn2)c1 [Compound 90, 1-(4-Hydroxy-5-((4-(trifluoromethyl)benzyl)carbamoyl)pyridin-2-yl)-1H-pyrazole-4-carboxylic acid] | 1 to 1000 |
| O=C(O)c1ccnc(-n2cc(C(=O)NCc3ccc(-c4ccccc4)cc3)cn2)c1 [Compound 103, 2-(4-(([1,1′-Biphenyl]-4-ylmethyl)carbamoyl)-1H-pyrazol-1-yl) isonicotinic acid] | > 10000 |
| O=C(NCC1CCCCC1)c1cnc(-n2cccn2)cc1O [Compound 44, N-(Cyclohexylmethyl)-4-hydroxy-6-(1H-pyrazol-1-yl) nicotinamide] | > 10000 |
| O=C(NCc1ccc(-c2ccccc2)cc1)c1ccc(-n2cccn2)nc1 [Compound 22, N-([1,1′-Biphenyl]-4-ylmethyl)-6-(1H-pyrazol-1-yl) nicotinamide] | > 10000 |
| COc1cc(-n2cc(C(=O)NCc3ccc(-c4ccccc4)cc3)cn2)ncc1C#N [Compound 93, N-([1,1′-Biphenyl]-4-ylmethyl)-1-(5-cyano-4-methoxypyridin-2-yl)-1H-pyrazole-4-carboxamide] | > 10000 |
| Cc1cc2nc(C)c3c(O)c(C(=O)NCc4ccc(-c5cccc(N6CCOCC6)c5)nc4)cnc3n2n1 [Compound 176, 6-hydroxy-2,5-dimethyl-N-((6-(3-morpholinophenyl)pyridin-3-yl)methyl) pyrazolo[1,5-a]pyrido[3,2-e]pyrimidine-7-carboxamide] | 1000 to 10000 |
| COc1ccc([C@H](C)NC(=O)c2cnc3c(c(C)nc4cc(C)nn43)c2O)cc1 [Compound 180, (S)-6-hydroxy-N-(1-(4-methoxyphenyl)ethyl)-2,5-dimethylpyrazolo[1,5-a]pyrido[3,2-e]pyrimidine-7-carboxamide] | 1 to 1000 |
| O=C(O)c1cnn(-c2cc(O)c(C(=O)NCc3ccc(-c4ccccc4)nc3)cn2)c1 [Compound 91, 1-(4-Hydroxy-5-(((6-phenylpyridin-3-yl)methyl)carbamoyl)pyridin-2-yl)-1H-pyrazole-4-carboxylic acid] | 1 to 1000 |
| O=C(NCc1ccc(-c2ccccc2)cc1)c1cnc(-n2cccn2)c(O)c1 [Compound 75, N-([1,1′-Biphenyl]-4-ylmethyl)-5-hydroxy-6-(1H-pyrazol-1-yl) nicotinamide] | 1000 to 10000 |
| O=C(NCc1ccc(OC(F)(F)F)cc1)c1cnc(-n2cccn2)cc1O [Compound 67, 4-Hydroxy-6-(1H-pyrazol-1-yl)-N-(4-(trifluoromethyloxy)benzyl) nicotinamide] | 1 to 1000 |
